Earlier results on one compound are cited in PubChem BioAssay AID1259409 (Chemical Carcinogenesis Research Information System (CCRIS), 2018).

The data set deals with rodent chemically induced tumor inhibition, incidence and multiplicity. Description: CCRIS tumor inhibitor studies. The note with it: Route [Inhibitor]: ORAL.

Each structure is given as a SMILES string.

As for `Cc1c(C)c2c(c(C)c1O)CC[C@@](C)(CCC[C@H](C)CCC[C@H](C)CCCC(C)C)O2`, the “tumour outcome (control, treated, inhibition, significance)” value is 4/10 (40%), 5/12 (42%), -5%, not significant (Carcinogen: 3,2-DIMETHYL-4-AMINOBIPHENYL, 13394-86-0, Dose [Inhibitor]: 0, 1% IN BASAL DIET BEGINNING POST CARCINOGEN TREATMENT AND CONTINUING FOR 40 WK (STUDY DURATION: 60 WK), Species: RAT, Strain/Sex: F344/MALE, Target Tissue: Type of Lesion: PANCREAS: ACINAR CELL NODULE, Dose [Carcinogen]: 50 MG/KG 1/2 WK FOR 20 WK TO RATS MAINTAINED ON ETHINYL ESTRADIOL CONTAINING DIET (0.75 PPM) FOR 1 WK CYCLED WITH ETHINY, Promoter: ETHINYL ESTRADIOL, 57-63-6); 5/10 (50%), 6/12 (50%), 0%, not significant (Carcinogen: 3,2-DIMETHYL-4-AMINOBIPHENYL, 13394-86-0, Dose [Inhibitor]: 0, 1% IN BASAL DIET BEGINNING POST CARCINOGEN TREATMENT AND CONTINUING FOR 40 WK (STUDY DURATION: 60 WK), Species: RAT, Strain/Sex: F344/MALE, Target Tissue: Type of Lesion: PROSTATE: CARCINOMA, Dose [Carcinogen]: 50 MG/KG 1/2 WK FOR 20 WK TO RATS MAINTAINED ON ETHINYL ESTRADIOL CONTAINING DIET (0.75 PPM) FOR 1 WK CYCLED WITH ETHINY, Promoter: ETHINYL ESTRADIOL, 57-63-6); 6/11 (55%), 4/11 (36%), 36%, not significant (Carcinogen: 4-NITROQUINOLINE 1-OXIDE, 56-57-5, Dose [Inhibitor]: 25.5, 550.9 MG/KG IN DIET FOR DURATION OF STUDY (STUDY DURATION: 23 WK), Species: MOUSE, Strain/Sex: DDY/MALE, Target Tissue: Type of Lesion: LUNG: TUMOR, Dose [Carcinogen]: 10 MG/KG BW SUSPENDED IN OLIVE OIL AND CHOLESTEROL (20:1, W/W) ONCE, Promoter: NONE USED); 9/11 (82%), 5/11 (45%), 45%, not calculated (Carcinogen: 4-NITROQUINOLINE 1-OXIDE, 56-57-5, Dose [Inhibitor]: EXCESSIVE VITAMIN E (DOSE NOT STATED) IN THE DIET FOR 4 WK POST CARCINOGEN DOSE (STUDY DURATION: 23 WK), Species: MOUSE, Strain/Sex: DDY/MALE, Target Tissue: Type of Lesion: LUNG: TUMOR, Dose [Carcinogen]: 10 MG/KG BW ONCE, Promoter: GLYCEROL, 56-81-5); 9/11 (82%), 2/9 (22%), 73%, not calculated (Carcinogen: 4-NITROQUINOLINE 1-OXIDE, 56-57-5, Dose [Inhibitor]: EXCESSIVE VITAMIN E (DOSE NOT STATED) IN THE DIET FOR 23 WK POST CARCINOGEN DOSE (STUDY DURATION: 23 WK), Species: MOUSE, Strain/Sex: DDY/MALE, Target Tissue: Type of Lesion: LUNG: TUMOR, Dose [Carcinogen]: 10 MG/KG BW ONCE, Promoter: GLYCEROL, 56-81-5); 88%, 79%, 10%, not significant (Carcinogen: 7,12-DIMETHYLBENZ[A]ANTHRACENE, 57-97-6, Dose [Inhibitor]: 0, 3.349 UMOL/G IN DIET FOR DURATION OF STUDY (STUDY DURATION: 18 WK), Species: RAT, Strain/Sex: SPRAGUE-DAWLEY/FEMALE, Target Tissue: Type of Lesion: MAMMARY GLAND: TUMOR, Dose [Carcinogen]: 50 MG/KG IN SESAME OIL ONCE, Promoter: NONE USED). Also, the “tumour outcome (control, treated, inhibition, significance)” value (Carcinogen: 7,12-DIMETHYLBENZ[A]ANTHRACENE, 57-97-6, Dose [Inhibitor]: 0.2% IN DIET FROM WEANING ONWARD (STUDY DURATION: 6 MO AFTER CARCINOGEN ADMINISTRATION), Species: RAT, Strain/Sex: SPRAGUE-DAWLEY/FEMALE, Target Tissue: Type of Lesion: MAMMARY GLAND: TUMOR, Dose [Carcinogen]: 10 MG/RAT IN 1 ML STRIPPED CORN OIL SINGLE DOSE ON D 50 FOLLOWING 24 HR FASTING PERIOD, Promoter: NONE USED) was 70%, 70%, 0%, not calculated; the “tumour outcome (control, treated, inhibition, significance)” value (Carcinogen: 7,12-DIMETHYLBENZ[A]ANTHRACENE, 57-97-6, Dose [Inhibitor]: 0.2% IN DIET FROM WEANING ONWARD (STUDY DURATION: 6 MO AFTER CARCINOGEN ADMINISTRATION), Species: RAT, Strain/Sex: SPRAGUE-DAWLEY/FEMALE, Target Tissue: Type of Lesion: MAMMARY GLAND: TUMOR, Dose [Carcinogen]: 10 MG/RAT IN 1 ML STRIPPED CORN OIL, SINGLE DOSE ON D 5 FOLLOWING 24 HR FASTING PERIOD, Promoter: NONE USED) is 40%, 37%, 8%, not calculated; the “tumour outcome (control, treated, inhibition, significance)” value (Carcinogen: 7,12-DIMETHYLBENZ[A]ANTHRACENE, 57-97-6, Dose [Inhibitor]: 0.2% IN DIET FROM WEANING ONWARD (STUDY DURATION: 6 MO AFTER CARCINOGEN ADMINISTRATION), Species: RAT, Strain/Sex: SPRAGUE-DAWLEY/FEMALE, Target Tissue: Type of Lesion: MAMMARY GLAND: TUMOR, Dose [Carcinogen]: 10 MG/RAT IN 1 ML STRIPPED CORN OIL, SINGLE DOSE ON D 50 FOLLOWING 24 HR FASTING PERIOD, Promoter: NONE USED) was 100%, 100%, 0%, not calculated; the “tumour outcome (control, treated, inhibition, significance)” value (Carcinogen: 7,12-DIMETHYLBENZ[A]ANTHRACENE, 57-97-6, Dose [Inhibitor]: 0.2% IN DIET, UNSATURATED FAT THROUGHOUT THE EXPERIMENT, (STUDY DURATION: 32 WK), Species: RAT, Strain/Sex: SPRAGUE-DAWLEY/FEMALE, Target Tissue: Type of Lesion: MAMMARY GLAND: PARENCHYMAL CARCINOMA, Dose [Carcinogen]: 10 MG IN 1 ML CORN OIL AT 50 D OF AGE CELL ONCE, Promoter: NONE USED) was 100%, 100%, 0%, not calculated; the “tumour outcome (control, treated, inhibition, significance)” value (Carcinogen: 7,12-DIMETHYLBENZ[A]ANTHRACENE, 57-97-6, Dose [Inhibitor]: 0.2% IN HIGH POLYUNSATURATED FAT DIET DAILY STARTING 29 D BEFORE CARCINOGEN TREATMENT AND CONTINUING FOR DURATION OF STU, Species: RAT, Strain/Sex: SPRAGUE-DAWLEY/FEMALE, Target Tissue: Type of Lesion: MAMMARY GLAND: ADENOCARCINOMA, Dose [Carcinogen]: 10 MG IN 1 ML STRIPPED CORN OIL ONCE AT 50 D OF AGE, Promoter: NONE USED) was 100%, 100%, 0%, not calculated.
